Assay results: US20230263822A1, “MODULATION OF FACTOR 11 EXPRESSION” (Ionis Pharmaceuticals, Inc., priority 2008, published 2023)
Strand notation (5' to 3'): a small letter for the sugar, then the base; units joined by * are phosphorothioate-linked, units joined directly phosphodiester-linked; [ ] holds rarer units or linkages, { } end groups; capitals alone tell only the bases. e = 2'-O-(2-methoxyethyl) (MOE); [5mC] = 5-methylcytosine; d = 2'-deoxy (DNA)

Columns and labels:
Type in all cases: in vivo
[1] = Body and organ weights of cynomolgus monkeys (Example 46); parameters: Liver weight / Spleen weight / Kidney weight: unit not given here
Description: (§1) Groups, each consisting of two male and two female monkeys, were injected subcutaneously with 25 mg/kg of ISIS 416850, ISIS 449709, ISIS 445522, ISIS 449710, ISIS 449707, ISIS 449711, ISIS 449708, 416858, and ISIS 445531. Antisense oligonucleotide was administered to the monkeys at 25 mg/kg three times per week for week 1 and 25 mg/kg twice per week for weeks 2 to 8. A control group, consisting of two male and two female monkeys was injected subcutaneously with PBS according to the same dosing regimen. Body weights were taken 14 days and 7 days before the start of treatment and were then measured weekly throughout the treatment period. Blood samples were collected 14 days and 5 days before the start of treatment and subsequently several times during the dosing regimen for PT and aPTT measurements, and measurement of various hematologic factors. On day 55, the monkeys were euthanized by exsanguination while under deep anesthesia, and organs harvested for further analysis.
Organ weights were taken after the animals were euthanized on day 55, and livers, kidneys and spleens were harvested.

[2] = Liver function, ALT, AST, bilirubin in cynomolgus monkeys (Example 46); details: plasma
Description: as §1
Plasma concentrations of alanine transaminase (ALT) and aspartate transaminase (AST) were measured and the results are presented in Tables 152 and 153 expressed in IU/L. Plasma levels of bilirubin were also measured and results are presented in Table 154 expressed in mg/dL. As observed in Tables 152-154, there were no significant increases in any of the liver metabolic markers after antisense oligonucleotide treatment.

[3] = Kidney function, BUN, urine protein to creatinine ratio in cynomolgus monkeys (Example 46); details: for Urine protein/creatinine ratio: day 49
Description: as §1
To evaluate the impact of ISIS oligonucleotides on kidney function, urine samples were collected on different days. […] The ratio of urine protein to creatinine in urine samples after antisense oligonucleotide treatment was also calculated for day 49 and results are presented in Table 156. As observed in Tables 155 and 156, there were no significant increases in any of the kidney metabolic markers after antisense oligonucleotide treatment.

blood coagulation = experiment: PT and aPTT assay in cynomolgus monkeys (Example 46); details: for PT ratio (INR) / aPTT ratio relative to PBS group: platelet poor plasma, relative to PBS group
Description: as §1
PT and aPTT were measured using platelet poor plasma (PPP) from […] treated with ISIS oligonucleotides. PT and aPTT values are provided in Tables 148 and 149 and are reported as International Normalized Ratio (INR) values. INR values for PT and aPTT were determined by dividing the PT or aPTT value for each experimental group by the PT or aPTT for the PBS treated group. This ratio was then raised to the power of the International Sensitivity Index (ISI) of the tissue factor used. […] Therefore, antisense reduction of Factor 11 with these ISIS oligonucleotides is useful for inhibiting the formation of a thrombus or clot in response to an abnormal vessel wall, but not in response to tissue injury.

[4] = Day −5 (before start of treatment)
[5] = Day −14 (before start of treatment)

Substance: ISIS 416858: MOE gapmer, nucleobases 1275 to 1318 of SEQ ID NO: 1 (Table 8) (antisense ACGGCATTGGTGCACAGTTT; MOE gapmer, wing and gap sizes not given here)
- body weight ([1]; day 1): 2115 g
- body weight ([1]; day 8): 2149 g
- body weight ([1]; day 15): 2162 g
- body weight ([1]; day 22): 2188 g
- body weight ([1]; day 29): 2196 g
- body weight ([1]; day 36): 2210 g
- body weight ([1]; day 43): 2238 g
- body weight ([1]; day 50): 2225 g
- Kidney weight ([1]; day 55, after euthanasia): 0.47
- Liver weight ([1]; day 55, after euthanasia): 2.6
- Spleen weight ([1]; day 55, after euthanasia): 0.24
- body weight ([1]; day −7): 2092 g
- body weight ([1]; day −14): 2073 g
- ALT ([2]; Day 31): 46 IU/L
- AST ([2]; Day 31): 60 IU/L
- Bilirubin ([2]; Day 31): 0.16 mg/dL
- ALT ([2]; Day 55): 58 IU/L
- AST ([2]; Day 55): 69 IU/L
- Bilirubin ([2]; Day 55): 0.16 mg/dL
- ALT ([2]; Day −5): 66 IU/L
- AST ([2]; Day −5): 100 IU/L
- Bilirubin ([2]; Day −5): 0.23 mg/dL
- ALT ([2]; Day −14): 43 IU/L
- AST ([2]; Day −14): 64 IU/L
- Bilirubin ([2]; Day −14): 0.25 mg/dL
- BUN levels ([3]; Day 31): 23 mg/dL
- BUN levels ([3]; Day 55): 24 mg/dL
- BUN levels [3, 4]: 24 mg/dL
- BUN levels [3, 5]: 25 mg/dL
- Urine protein/creatinine ratio [3]: 0.05
- PT ratio (INR) (blood coagulation; Day 10): 0.96
- aPTT ratio relative to PBS group (blood coagulation; Day 10): 1.07
- PT ratio (INR) (blood coagulation; Day 17): 0.98
- aPTT ratio relative to PBS group (blood coagulation; Day 17): 1.13
- PT ratio (INR) (blood coagulation; Day 24): 0.95
- aPTT ratio relative to PBS group (blood coagulation; Day 24): 1.21
- PT ratio (INR) (blood coagulation; Day 31): 1.00
- aPTT ratio relative to PBS group (blood coagulation; Day 31): 1.32
- PT ratio (INR) (blood coagulation; Day 38): 0.97
- aPTT ratio relative to PBS group (blood coagulation; Day 38): 1.41
- PT ratio (INR) (blood coagulation; Day 45): 1.00
- aPTT ratio relative to PBS group (blood coagulation; Day 45): 1.49
- PT ratio (INR) (blood coagulation; Day 52): 0.99
- aPTT ratio relative to PBS group (blood coagulation; Day 52): 1.53
- PT ratio (INR) (blood coagulation; Day 55): 1.01
- aPTT ratio relative to PBS group (blood coagulation; Day 55): 1.61
- PT ratio (INR) (blood coagulation; Day −5): 0.96
- aPTT ratio relative to PBS group (blood coagulation; Day −5): 0.96
- PT ratio (INR) (blood coagulation; Day −14): 1.01
- aPTT ratio relative to PBS group (blood coagulation; Day −14): 1.03
- aPTT (blood coagulation; cynomolgus monkeys, 25 mg/kg): significantly prolonged

Substance: ISIS 449711: 3-8-3, 4-8-4, 2-10-2, 3-10-3 or 4-10-4 MOE microwalk gapmer (Table 46) (antisense eA*e[5mC]*dA*dG*dT*dT*dT*d[5mC]*dT*dG*dG*d[5mC]*eA*eG)
- Spleen weight ([1]; cynomolgus monkeys, 25 mg/kg, day 55, compared to the PBS control): caused increase in spleen weight
- body weight ([1]; day 1): 2123 g
- body weight ([1]; day 8): 2123 g
- body weight ([1]; day 15): 2103 g
- body weight ([1]; day 22): 2171 g
- body weight ([1]; day 29): 2203 g
- body weight ([1]; day 36): 2227 g
- body weight ([1]; day 43): 2251 g
- body weight ([1]; day 50): 2227 g
- Kidney weight ([1]; day 55, after euthanasia): 0.54
- Liver weight ([1]; day 55, after euthanasia): 2.6
- Spleen weight ([1]; day 55, after euthanasia): 0.32
- body weight ([1]; day −7): 2105 g
- body weight ([1]; day −14): 2049 g
- ALT ([2]; Day 31): 48 IU/L
- AST ([2]; Day 31): 47 IU/L
- Bilirubin ([2]; Day 31): 0.13 mg/dL
- ALT ([2]; Day 55): 54 IU/L
- AST ([2]; Day 55): 47 IU/L
- Bilirubin ([2]; Day 55): 0.13 mg/dL
- ALT ([2]; Day −5): 137 IU/L
- AST ([2]; Day −5): 78 IU/L
- Bilirubin ([2]; Day −5): 0.16 mg/dL
- ALT ([2]; Day −14): 49 IU/L
- AST ([2]; Day −14): 58 IU/L
- Bilirubin ([2]; Day −14): 0.23 mg/dL
- BUN levels ([3]; Day 31): 20 mg/dL
- BUN levels ([3]; Day 55): 23 mg/dL
- BUN levels [3, 4]: 22 mg/dL
- BUN levels [3, 5]: 26 mg/dL
- Urine protein/creatinine ratio [3]: 0.01
- PT ratio (INR) (blood coagulation; Day 10): 0.94
- aPTT ratio relative to PBS group (blood coagulation; Day 10): 0.92
- PT ratio (INR) (blood coagulation; Day 17): 0.95
- aPTT ratio relative to PBS group (blood coagulation; Day 17): 0.90
- PT ratio (INR) (blood coagulation; Day 24): 0.94
- aPTT ratio relative to PBS group (blood coagulation; Day 24): 0.92
- PT ratio (INR) (blood coagulation; Day 31): 0.98
- aPTT ratio relative to PBS group (blood coagulation; Day 31): 0.89
- PT ratio (INR) (blood coagulation; Day 38): 1.02
- aPTT ratio relative to PBS group (blood coagulation; Day 38): 0.93
- PT ratio (INR) (blood coagulation; Day 45): 1.01
- aPTT ratio relative to PBS group (blood coagulation; Day 45): 0.94
- PT ratio (INR) (blood coagulation; Day 52): 1.00
- aPTT ratio relative to PBS group (blood coagulation; Day 52): 0.92
- PT ratio (INR) (blood coagulation; Day 55): 1.07
- aPTT ratio relative to PBS group (blood coagulation; Day 55): 0.96
- PT ratio (INR) (blood coagulation; Day −5): 0.95
- aPTT ratio relative to PBS group (blood coagulation; Day −5): 0.96
- PT ratio (INR) (blood coagulation; Day −14): 1.00
- aPTT ratio relative to PBS group (blood coagulation; Day −14): 0.94
